{"source": "paper PMC5428509", "about": "“Irreversible inhibition of BTK kinase by a novel highly selective inhibitor CHMFL-BTK-11 suppresses inflammatory response in rheumatoid arthritis model” (Scientific Reports, 2017)", "experiment_in_all_cases": "biochemical", "design_in_all_cases": "KinomeScan competition binding panel (DiscoveRx), percent of control at 1 uM", "conditions_in_all_cases": "read-out: Percent Control", "key": {"[1]": {"biological_target": "T1, ABL1(M351T)-phosphorylated (Homo sapiens, UniProt P00519, M351T)", "T1 construct": "phosphorylated", "how_it_was_run": "(§1)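 KinomeScan technology used to profile binding across a panel of 456 kinases and mutants.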"}, "[2]": {"biological_target": "T2, ADCK4 (Homo sapiens, UniProt Q96D53)", "T2 construct": "gene COQ8B", "how_it_was_run": "as §1"}, "[3]": {"biological_target": "AURKC (Homo sapiens, UniProt Q9UQB9)", "sequence (Q9UQB9 whole entry)": "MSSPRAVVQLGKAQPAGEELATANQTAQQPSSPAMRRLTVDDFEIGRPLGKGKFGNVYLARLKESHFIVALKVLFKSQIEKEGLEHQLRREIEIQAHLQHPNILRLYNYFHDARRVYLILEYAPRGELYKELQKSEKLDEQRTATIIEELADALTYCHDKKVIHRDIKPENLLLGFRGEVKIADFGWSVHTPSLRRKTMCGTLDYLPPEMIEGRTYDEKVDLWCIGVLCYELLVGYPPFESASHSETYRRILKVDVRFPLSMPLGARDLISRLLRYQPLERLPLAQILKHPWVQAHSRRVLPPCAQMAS", "how_it_was_run": "as §1"}, "[4]": {"biological_target": "AXL (Homo sapiens, UniProt P30530)", "how_it_was_run": "as §1"}, "[5]": {"biological_target": "BTK (Homo sapiens, UniProt Q06187)", "sequence (Q06187 whole entry)": "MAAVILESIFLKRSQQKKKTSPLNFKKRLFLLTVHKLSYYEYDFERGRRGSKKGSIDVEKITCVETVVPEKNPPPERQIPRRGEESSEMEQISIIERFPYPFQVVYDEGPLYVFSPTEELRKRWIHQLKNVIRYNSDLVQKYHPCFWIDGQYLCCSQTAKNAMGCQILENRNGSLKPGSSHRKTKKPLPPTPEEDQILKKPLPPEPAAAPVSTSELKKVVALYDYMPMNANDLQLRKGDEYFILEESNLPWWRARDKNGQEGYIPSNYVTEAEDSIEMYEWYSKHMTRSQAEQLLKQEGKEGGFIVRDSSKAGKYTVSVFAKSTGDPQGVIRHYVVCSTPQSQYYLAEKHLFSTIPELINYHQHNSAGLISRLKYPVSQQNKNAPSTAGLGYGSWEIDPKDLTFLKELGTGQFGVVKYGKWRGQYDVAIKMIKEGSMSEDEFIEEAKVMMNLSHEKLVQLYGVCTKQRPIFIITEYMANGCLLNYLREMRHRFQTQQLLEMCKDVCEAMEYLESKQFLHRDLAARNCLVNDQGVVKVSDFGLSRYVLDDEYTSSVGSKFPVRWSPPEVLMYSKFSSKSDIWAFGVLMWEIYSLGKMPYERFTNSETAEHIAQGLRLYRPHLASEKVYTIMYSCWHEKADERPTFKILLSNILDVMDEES", "how_it_was_run": "as §1"}, "[6]": {"biological_target": "CASK (Homo sapiens, UniProt O14936)", "how_it_was_run": "as §1"}, "[7]": {"biological_target": "EGFR(E746-A750del) (Homo sapiens, UniProt P00533, DEL746-750)", "how_it_was_run": "as §1"}, "[8]": {"biological_target": "EGFR(L747-S752del, P753S) (Homo sapiens, UniProt P00533, DEL747-752/P753S)", "how_it_was_run": "as §1"}, "[9]": {"biological_target": "EGFR(L861Q) (Homo sapiens, UniProt P00533, L861Q)", "how_it_was_run": "as §1"}, "[10]": {"biological_target": "T3, ERK1 (Homo sapiens, UniProt P27361)", "T3 construct": "gene MAPK3", "how_it_was_run": "as §1"}, "[11]": {"biological_target": "T4, FAK (Homo sapiens, UniProt Q05397)", "T4 construct": "gene PTK2", "how_it_was_run": "as §1"}, "[12]": {"biological_target": "FES (Homo sapiens, UniProt P07332)", "how_it_was_run": "as §1"}, "[13]": {"biological_target": "FLT3(K663Q) (Homo sapiens, UniProt P36888, K663Q)", "how_it_was_run": "as §1"}, "[14]": {"biological_target": "FYN (Homo sapiens, UniProt P06241)", "how_it_was_run": "as §1"}, "[15]": {"biological_target": "T5, JAK1(JH1domain-catalytic) (Homo sapiens, UniProt P23458)", "T5 construct": "JH1domain-catalytic", "how_it_was_run": "as §1"}, "[16]": {"biological_target": "KIT-autoinhibited (Homo sapiens, UniProt P10721)", "sequence (P10721 whole entry)": "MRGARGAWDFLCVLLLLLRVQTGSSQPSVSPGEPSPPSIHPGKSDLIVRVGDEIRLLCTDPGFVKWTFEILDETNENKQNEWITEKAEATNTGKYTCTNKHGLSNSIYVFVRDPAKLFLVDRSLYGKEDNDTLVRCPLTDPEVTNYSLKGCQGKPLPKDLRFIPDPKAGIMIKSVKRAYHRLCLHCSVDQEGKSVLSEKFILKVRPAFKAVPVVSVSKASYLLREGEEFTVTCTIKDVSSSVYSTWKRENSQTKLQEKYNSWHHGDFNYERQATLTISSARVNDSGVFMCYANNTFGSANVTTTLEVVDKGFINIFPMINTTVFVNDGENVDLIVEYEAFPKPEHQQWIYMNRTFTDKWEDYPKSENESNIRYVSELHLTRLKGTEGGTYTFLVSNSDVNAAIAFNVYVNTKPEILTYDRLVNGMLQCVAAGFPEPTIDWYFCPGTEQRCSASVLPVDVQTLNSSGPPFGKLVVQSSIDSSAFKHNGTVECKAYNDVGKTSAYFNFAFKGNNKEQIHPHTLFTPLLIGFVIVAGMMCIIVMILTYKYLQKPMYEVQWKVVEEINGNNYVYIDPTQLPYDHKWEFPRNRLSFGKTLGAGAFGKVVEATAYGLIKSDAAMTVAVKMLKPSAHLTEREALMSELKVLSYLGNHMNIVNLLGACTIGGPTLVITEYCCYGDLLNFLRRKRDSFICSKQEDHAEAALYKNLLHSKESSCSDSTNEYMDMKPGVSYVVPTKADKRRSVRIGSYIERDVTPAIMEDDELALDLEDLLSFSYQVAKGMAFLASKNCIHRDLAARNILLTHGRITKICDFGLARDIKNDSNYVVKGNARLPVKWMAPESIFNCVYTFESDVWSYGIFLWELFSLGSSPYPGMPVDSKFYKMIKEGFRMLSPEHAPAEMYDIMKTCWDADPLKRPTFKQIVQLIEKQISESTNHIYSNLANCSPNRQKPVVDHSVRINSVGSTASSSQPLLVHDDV", "how_it_was_run": "as §1"}, "[17]": {"biological_target": "LCK (Homo sapiens, UniProt P06239)", "how_it_was_run": "as §1"}, "[18]": {"biological_target": "NEK5 (Homo sapiens, UniProt Q6P3R8)", "sequence (Q6P3R8 whole entry)": "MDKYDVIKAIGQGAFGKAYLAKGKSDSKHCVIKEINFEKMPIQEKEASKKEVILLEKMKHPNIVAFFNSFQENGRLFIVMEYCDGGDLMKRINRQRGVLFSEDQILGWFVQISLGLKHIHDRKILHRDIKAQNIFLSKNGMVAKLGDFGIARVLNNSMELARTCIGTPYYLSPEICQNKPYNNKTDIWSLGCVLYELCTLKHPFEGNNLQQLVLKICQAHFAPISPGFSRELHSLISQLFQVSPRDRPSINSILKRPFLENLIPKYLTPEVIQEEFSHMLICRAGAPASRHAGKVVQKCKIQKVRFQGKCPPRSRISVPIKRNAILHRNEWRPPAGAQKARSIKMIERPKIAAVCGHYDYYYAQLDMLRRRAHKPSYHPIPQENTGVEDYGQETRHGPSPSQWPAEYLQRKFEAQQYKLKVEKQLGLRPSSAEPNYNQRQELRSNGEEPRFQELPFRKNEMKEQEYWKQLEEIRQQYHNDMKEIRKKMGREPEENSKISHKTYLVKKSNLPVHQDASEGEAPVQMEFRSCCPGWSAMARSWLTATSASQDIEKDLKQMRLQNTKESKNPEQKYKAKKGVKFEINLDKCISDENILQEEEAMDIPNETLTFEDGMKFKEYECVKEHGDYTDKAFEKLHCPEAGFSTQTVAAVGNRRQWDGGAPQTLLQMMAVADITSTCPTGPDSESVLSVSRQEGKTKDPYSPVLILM", "how_it_was_run": "as §1"}, "[19]": {"biological_target": "NLK (Homo sapiens, UniProt Q9UBE8)", "sequence (Q9UBE8 whole entry)": "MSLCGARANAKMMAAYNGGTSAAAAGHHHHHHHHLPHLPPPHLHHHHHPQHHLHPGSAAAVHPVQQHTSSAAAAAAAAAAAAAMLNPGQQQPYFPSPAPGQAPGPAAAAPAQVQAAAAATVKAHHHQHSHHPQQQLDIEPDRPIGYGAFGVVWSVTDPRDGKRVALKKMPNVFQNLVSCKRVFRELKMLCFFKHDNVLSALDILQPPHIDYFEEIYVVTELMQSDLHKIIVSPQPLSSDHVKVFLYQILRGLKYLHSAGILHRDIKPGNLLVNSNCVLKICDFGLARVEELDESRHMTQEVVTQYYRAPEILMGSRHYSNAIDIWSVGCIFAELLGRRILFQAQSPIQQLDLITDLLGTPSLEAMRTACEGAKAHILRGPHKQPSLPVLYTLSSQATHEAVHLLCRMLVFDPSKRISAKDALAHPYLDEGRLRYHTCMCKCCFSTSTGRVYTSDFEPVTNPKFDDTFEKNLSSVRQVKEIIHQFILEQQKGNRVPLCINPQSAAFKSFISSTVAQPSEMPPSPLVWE", "how_it_was_run": "as §1"}, "[20]": {"biological_target": "PHKG2 (Homo sapiens, UniProt P15735)", "how_it_was_run": "as §1"}, "[21]": {"biological_target": "PLK1 (Homo sapiens, UniProt P53350)", "sequence (P53350 whole entry)": "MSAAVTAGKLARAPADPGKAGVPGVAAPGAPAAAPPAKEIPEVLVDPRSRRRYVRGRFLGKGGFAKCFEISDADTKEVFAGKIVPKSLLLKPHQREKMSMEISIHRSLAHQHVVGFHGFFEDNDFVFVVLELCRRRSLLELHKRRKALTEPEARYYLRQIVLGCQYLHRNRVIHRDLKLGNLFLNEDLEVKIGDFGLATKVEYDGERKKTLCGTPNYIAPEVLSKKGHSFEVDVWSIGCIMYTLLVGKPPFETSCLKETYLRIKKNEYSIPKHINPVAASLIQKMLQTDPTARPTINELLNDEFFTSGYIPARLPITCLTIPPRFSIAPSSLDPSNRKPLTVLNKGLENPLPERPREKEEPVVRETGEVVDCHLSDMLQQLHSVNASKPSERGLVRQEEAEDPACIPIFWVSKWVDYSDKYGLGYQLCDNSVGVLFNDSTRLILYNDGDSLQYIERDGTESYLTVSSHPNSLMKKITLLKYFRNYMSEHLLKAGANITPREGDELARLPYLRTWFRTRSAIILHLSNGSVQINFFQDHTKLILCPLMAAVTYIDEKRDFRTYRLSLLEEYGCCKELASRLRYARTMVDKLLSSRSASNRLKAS", "how_it_was_run": "as §1"}, "[22]": {"biological_target": "PRKCE (Homo sapiens, UniProt Q02156)", "how_it_was_run": "as §1"}, "[23]": {"biological_target": "PRKX (Homo sapiens, UniProt P51817)", "how_it_was_run": "as §1"}, "[24]": {"biological_target": "RET(V804M) (Homo sapiens, UniProt P07949, V804M)", "how_it_was_run": "as §1"}, "[25]": {"biological_target": "TAOK2 (Homo sapiens, UniProt Q9UL54)", "sequence (Q9UL54 whole entry)": "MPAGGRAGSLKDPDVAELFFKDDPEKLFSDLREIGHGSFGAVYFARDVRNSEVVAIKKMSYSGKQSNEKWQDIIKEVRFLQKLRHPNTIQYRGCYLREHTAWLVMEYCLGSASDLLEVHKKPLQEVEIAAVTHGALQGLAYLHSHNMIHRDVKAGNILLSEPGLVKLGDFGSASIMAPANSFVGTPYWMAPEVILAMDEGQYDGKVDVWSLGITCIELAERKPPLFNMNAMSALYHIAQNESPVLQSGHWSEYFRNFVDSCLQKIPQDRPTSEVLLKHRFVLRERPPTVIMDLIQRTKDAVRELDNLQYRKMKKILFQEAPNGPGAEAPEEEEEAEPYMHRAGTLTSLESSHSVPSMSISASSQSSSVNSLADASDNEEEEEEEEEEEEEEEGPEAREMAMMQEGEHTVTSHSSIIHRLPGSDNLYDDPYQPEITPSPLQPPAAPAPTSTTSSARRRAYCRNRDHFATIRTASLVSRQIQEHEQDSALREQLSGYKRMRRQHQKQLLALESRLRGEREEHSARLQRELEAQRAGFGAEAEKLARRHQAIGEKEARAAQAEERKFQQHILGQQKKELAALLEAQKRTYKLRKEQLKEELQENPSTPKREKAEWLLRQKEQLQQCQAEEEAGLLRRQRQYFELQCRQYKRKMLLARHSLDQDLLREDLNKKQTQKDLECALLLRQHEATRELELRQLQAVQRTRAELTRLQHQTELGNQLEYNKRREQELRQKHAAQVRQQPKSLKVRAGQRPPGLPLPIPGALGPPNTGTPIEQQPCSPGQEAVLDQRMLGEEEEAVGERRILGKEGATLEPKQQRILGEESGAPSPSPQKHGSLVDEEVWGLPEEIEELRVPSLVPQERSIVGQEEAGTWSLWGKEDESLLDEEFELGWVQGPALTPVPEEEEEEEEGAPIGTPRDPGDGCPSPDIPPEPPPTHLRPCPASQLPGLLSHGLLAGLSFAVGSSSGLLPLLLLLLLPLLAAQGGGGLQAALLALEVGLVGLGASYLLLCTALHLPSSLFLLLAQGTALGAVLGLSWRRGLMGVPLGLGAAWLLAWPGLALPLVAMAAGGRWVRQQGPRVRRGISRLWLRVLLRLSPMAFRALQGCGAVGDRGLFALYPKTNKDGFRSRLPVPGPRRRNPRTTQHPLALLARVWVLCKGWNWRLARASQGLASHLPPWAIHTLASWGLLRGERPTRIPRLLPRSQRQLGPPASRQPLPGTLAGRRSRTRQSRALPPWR", "how_it_was_run": "as §1"}}}
{"smiles": "C=CC(=O)Nc1cc(-n2c(=O)ccc3cnc4ccc(-n5cccn5)cc4c32)ccc1C", "note": "[CHMFL-BTK-11]", "values": [{"measurement": "remaining binding at 1 µM", "setting": "[1]", "result": 72, "unit": "%"}, {"measurement": "remaining binding at 1 µM", "setting": "[2]", "result": 100, "unit": "%"}, {"measurement": "remaining binding at 1 µM", "setting": "[3]", "result": 98, "unit": "%"}, {"measurement": "remaining binding at 1 µM", "setting": "[4]", "result": 100, "unit": "%"}, {"measurement": "remaining binding at 1 µM", "setting": "[5]", "result": 8.2, "unit": "%"}, {"measurement": "remaining binding at 1 µM", "setting": "[6]", "result": 86, "unit": "%"}, {"measurement": "remaining binding at 1 µM", "setting": "[7]", "result": 90, "unit": "%"}, {"measurement": "remaining binding at 1 µM", "setting": "[8]", "result": 86, "unit": "%"}, {"measurement": "remaining binding at 1 µM", "setting": "[9]", "result": 71, "unit": "%"}, {"measurement": "remaining binding at 1 µM", "setting": "[10]", "result": 100, "unit": "%"}, {"measurement": "remaining binding at 1 µM", "setting": "[11]", "result": 100, "unit": "%"}, {"measurement": "remaining binding at 1 µM", "setting": "[12]", "result": 90, "unit": "%"}, {"measurement": "remaining binding at 1 µM", "setting": "[13]", "result": 100, "unit": "%"}, {"measurement": "remaining binding at 1 µM", "setting": "[14]", "result": 99, "unit": "%"}, {"measurement": "remaining binding at 1 µM", "setting": "[15]", "result": 100, "unit": "%"}, {"measurement": "remaining binding at 1 µM", "setting": "[16]", "result": 83, "unit": "%"}, {"measurement": "remaining binding at 1 µM", "setting": "[17]", "result": 100, "unit": "%"}, {"measurement": "remaining binding at 1 µM", "setting": "[18]", "result": 73, "unit": "%"}, {"measurement": "remaining binding at 1 µM", "setting": "[19]", "result": 100, "unit": "%"}, {"measurement": "remaining binding at 1 µM", "setting": "[20]", "result": 100, "unit": "%"}, {"measurement": "remaining binding at 1 µM", "setting": "[21]", "result": 99, "unit": "%"}, {"measurement": "remaining binding at 1 µM", "setting": "[22]", "result": 97, "unit": "%"}, {"measurement": "remaining binding at 1 µM", "setting": "[23]", "result": 100, "unit": "%"}, {"measurement": "remaining binding at 1 µM", "setting": "[24]", "result": 100, "unit": "%"}, {"measurement": "remaining binding at 1 µM", "setting": "[25]", "result": 91, "unit": "%"}]}
